The subject of experiment [1] is α1 adrenergic receptors (rat cerebral cortex). Description: Radioligand binding assay, adrenergic α1 receptors. The settings on record: test compound 1×10^−6 M. Put shortly:
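Values derive from radioligand displacement, with non-specific binding defined by excess cold ligand and detection by scintillation. Hill-fit IC50s were converted to Ki via Cheng-Prusoff using Scatchard-derived Kd; percent inhibition of control specific binding also reported.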

Experiment [2] deals with T1, 5-HT1A receptor (rat hippocampus) (Rattus norvegicus, UniProt P19327).
T1 construct: hippocampus; from tissue; host or cells: rat hippocampus
T1 sequence (P19327 1-422): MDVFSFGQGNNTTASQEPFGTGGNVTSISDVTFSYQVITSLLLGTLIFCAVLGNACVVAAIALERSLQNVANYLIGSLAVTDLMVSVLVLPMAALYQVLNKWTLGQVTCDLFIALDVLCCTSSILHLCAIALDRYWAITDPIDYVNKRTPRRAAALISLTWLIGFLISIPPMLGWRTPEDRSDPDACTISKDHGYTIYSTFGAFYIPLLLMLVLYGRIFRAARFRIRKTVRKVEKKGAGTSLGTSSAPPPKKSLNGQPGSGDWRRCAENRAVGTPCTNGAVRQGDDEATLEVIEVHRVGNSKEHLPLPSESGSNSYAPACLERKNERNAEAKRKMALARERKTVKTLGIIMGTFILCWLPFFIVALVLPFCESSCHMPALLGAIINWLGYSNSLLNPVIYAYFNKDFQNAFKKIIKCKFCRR
Description: Radioligand binding assay, serotoninergic 5-HT1A receptors.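 Note: test compound at 1 µM.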 The settings on record: binding assay result in %, Table 5a.

For experiment [3], the target named is T2, 5-HT6 receptor (Homo sapiens, UniProt P50406).
T2 construct: purchased PerkinElmer
T2 sequence (P50406 whole entry): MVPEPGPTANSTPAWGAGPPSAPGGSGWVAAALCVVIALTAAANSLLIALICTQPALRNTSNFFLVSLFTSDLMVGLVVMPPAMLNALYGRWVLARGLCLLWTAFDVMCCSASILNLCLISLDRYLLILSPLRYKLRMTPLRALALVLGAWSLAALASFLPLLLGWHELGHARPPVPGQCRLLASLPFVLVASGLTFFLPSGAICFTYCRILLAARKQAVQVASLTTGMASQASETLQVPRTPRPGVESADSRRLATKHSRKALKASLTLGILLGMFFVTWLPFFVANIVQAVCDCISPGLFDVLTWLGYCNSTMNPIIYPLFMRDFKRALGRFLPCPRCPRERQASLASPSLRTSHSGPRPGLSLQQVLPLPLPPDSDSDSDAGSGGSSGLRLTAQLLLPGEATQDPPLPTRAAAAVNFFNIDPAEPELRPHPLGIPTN
In words: Radioligand binding assay, serotoninergic 5-HT6 receptors.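 Note: test compound at 1 µM.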 The settings on record: binding assay result in %, Table 5a. Put shortly: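 Values are Ki from Cheng–Prusoff, taking IC50 from Hill nonlinear regression of competition curves and KD from a Scatchard plot. Specific binding was total minus binding with excess unlabelled ligand. Radioligand displacement was detected by scintillation counting, and data were also reported as percent of control specific binding.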

Experiment [4] deals with T3, 5-HT7 receptor (Homo sapiens, UniProt P34969).
T3 construct: purchased PerkinElmer
T3 sequence (P34969 whole entry): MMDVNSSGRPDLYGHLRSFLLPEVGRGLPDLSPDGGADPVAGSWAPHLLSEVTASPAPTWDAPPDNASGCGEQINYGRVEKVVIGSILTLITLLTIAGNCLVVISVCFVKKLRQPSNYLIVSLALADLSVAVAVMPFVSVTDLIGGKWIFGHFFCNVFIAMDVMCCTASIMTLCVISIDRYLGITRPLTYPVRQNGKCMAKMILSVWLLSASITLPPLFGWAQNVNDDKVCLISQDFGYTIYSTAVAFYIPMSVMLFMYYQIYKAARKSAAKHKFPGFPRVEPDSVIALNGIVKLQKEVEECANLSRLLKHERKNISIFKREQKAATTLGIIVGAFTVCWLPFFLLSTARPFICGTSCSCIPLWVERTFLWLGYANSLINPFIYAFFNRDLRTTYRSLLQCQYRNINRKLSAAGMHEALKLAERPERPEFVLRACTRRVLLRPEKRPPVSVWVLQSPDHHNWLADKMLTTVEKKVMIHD
In words: Radioligand binding assay, serotoninergic 5-HT7 receptors.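 Note: test compound at 1 µM.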 The settings on record: binding assay result in %, Table 5a. Put shortly: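 Ki values used the Cheng–Prusoff equation, with KD from Scatchard analysis, applied to IC50 from Hill fits of human 5-HT7 radioligand competition curves. Bound radioligand was counted by scintillation, and excess unlabelled ligand set the non-specific binding.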

Experiment [5] concerns the target T4, 5-HT2A receptor (Homo sapiens, UniProt P28223).
T4 construct: purchased PerkinElmer
Description: Radioligand binding assay, serotoninergic 5-HT2A receptors. The settings on record: binding assay result in %, Table 5a. Put shortly: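 Competition curves from scintillation-counted specific binding (total minus binding with excess unlabelled ligand) were Hill-fitted to give IC50, converted to Ki via Cheng-Prusoff using Scatchard-derived Kd.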

Experiment [6] concerns the target dopaminergic receptors D3 (Homo sapiens, UniProt P35462). In words: Radioligand binding assay, dopaminergic D3 receptors. The settings on record: test compound 1×10^−6 M. Put shortly:
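Scintillation read-out. Specific = total − nonspecific (excess cold ligand). Data as % of control specific binding / % inhibition; IC50 by Hill fit; Ki = IC50/(1+L/KD), KD from Scatchard plot.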

For experiment [7], the target named is dopaminergic receptors D2 (Homo sapiens, UniProt P14416). In words: Radioligand binding assay, dopaminergic D2 receptors. The settings on record: binding assay, test compound 1×10^−6 M. Put shortly:
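Displacement of radioligand from human dopamine D2, D3 or D4.4 receptors, counted by scintillation; specific binding is total minus binding under excess unlabelled ligand. IC50 values come from Hill curve fits of percent inhibition, then converted to Ki by Cheng-Prusoff using Scatchard-derived KD.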

For experiment [8], the target named is T5, serotonin transporter (SERT) (Homo sapiens, UniProt P31645).
T5 construct: expressed in transfected cells; host or cells: CHO cells
T5 sequence (P31645 whole entry): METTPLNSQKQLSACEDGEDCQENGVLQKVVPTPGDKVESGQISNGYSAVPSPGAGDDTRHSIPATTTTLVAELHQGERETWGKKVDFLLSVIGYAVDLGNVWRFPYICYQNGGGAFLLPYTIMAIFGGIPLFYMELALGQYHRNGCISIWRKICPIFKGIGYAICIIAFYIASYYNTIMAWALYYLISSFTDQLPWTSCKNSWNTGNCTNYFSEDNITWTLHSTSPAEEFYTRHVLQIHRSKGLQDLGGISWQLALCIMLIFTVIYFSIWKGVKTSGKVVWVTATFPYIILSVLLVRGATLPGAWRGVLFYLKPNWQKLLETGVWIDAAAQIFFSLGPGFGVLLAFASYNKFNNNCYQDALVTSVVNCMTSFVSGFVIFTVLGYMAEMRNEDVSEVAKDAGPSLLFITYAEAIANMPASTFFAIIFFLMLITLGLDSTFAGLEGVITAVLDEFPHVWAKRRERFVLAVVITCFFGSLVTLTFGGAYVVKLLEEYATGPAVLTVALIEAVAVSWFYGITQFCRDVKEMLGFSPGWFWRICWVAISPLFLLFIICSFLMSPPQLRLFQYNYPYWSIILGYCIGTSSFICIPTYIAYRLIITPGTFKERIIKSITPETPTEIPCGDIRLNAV
In words: Radioligand binding assay, serotonin transporter (SERT). The settings on record: binding assay, test compound 1×10^−6 M. Put shortly:
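Values are derived from competition curves fitted by the Hill equation to give IC50, then converted to Ki by Cheng-Prusoff with radioligand Kd from Scatchard analysis. Specific binding equals total minus non-specific (excess cold ligand), counted by scintillation, and is also expressed as percent inhibition of control.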

Structures are written as SMILES.

T4 sequence (P28223 whole entry): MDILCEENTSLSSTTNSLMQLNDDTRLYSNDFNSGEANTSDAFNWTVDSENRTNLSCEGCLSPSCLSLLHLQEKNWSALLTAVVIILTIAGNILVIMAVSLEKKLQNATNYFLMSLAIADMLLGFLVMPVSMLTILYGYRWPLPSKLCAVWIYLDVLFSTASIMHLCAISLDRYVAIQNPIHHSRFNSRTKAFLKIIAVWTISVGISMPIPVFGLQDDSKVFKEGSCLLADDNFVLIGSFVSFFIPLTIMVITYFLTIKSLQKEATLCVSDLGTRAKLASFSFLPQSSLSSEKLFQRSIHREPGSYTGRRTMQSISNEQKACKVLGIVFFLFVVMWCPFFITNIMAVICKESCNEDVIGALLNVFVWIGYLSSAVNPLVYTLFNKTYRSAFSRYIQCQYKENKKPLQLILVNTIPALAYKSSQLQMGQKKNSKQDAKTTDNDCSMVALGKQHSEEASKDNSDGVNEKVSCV
Sequence of dopaminergic receptors D2 (P14416 whole entry): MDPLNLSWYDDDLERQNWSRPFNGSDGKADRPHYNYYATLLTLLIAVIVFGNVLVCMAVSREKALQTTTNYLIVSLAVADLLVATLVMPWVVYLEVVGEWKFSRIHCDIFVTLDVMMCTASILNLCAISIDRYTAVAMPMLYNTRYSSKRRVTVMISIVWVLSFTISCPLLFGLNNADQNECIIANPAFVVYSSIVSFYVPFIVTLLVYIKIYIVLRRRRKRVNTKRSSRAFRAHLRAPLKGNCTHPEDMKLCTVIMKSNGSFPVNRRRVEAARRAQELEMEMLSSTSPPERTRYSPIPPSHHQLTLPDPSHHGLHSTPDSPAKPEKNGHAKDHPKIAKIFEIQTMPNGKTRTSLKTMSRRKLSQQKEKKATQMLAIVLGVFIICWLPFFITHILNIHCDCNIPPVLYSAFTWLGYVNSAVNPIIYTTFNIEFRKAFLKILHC
Sequence of dopaminergic receptors D3 (P35462 whole entry): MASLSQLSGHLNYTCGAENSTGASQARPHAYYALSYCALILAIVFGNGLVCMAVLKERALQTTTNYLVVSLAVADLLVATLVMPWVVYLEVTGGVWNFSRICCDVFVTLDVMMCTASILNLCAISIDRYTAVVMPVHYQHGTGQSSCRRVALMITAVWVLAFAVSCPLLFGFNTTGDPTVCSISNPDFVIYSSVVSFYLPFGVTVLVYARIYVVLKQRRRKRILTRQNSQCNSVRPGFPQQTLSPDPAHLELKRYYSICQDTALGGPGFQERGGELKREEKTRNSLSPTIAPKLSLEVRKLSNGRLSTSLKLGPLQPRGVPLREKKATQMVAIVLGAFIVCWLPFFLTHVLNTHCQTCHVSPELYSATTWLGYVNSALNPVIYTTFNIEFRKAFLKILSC

As to `O=S(=O)(NC1CCN(CCCc2noc3cc(F)ccc23)CC1)c1ccc(-c2ccccc2)cc1` [Compound 327, N-[1-[3-(6-Fluoro-1,2-benzoxazol-3-yl)propyl]-4-piperidyl]-4-phenylbenzenesulphonamide], in experiment [1], the “α1 [%]” value turned out to be 81%. Further, the inhibition at 1 µM in experiment [2] turned out to be 20%; in experiment [3], 68%; in experiment [4] it was 86%; in experiment [5] it was 94%; in experiment [6], 56%; in experiment [7], 79%. Further, the inhibition at 1 µM in experiment [8] was 33%.
With `Cn1ccc2c(S(=O)(=O)NCC3CN(CCOc4cccc5c4OCCO5)C3)cccc21` [Compound 188, N-[[1-[2-(2,3-Dihydro-1,4-benzodioxin-5-yloxy)ethyl]azetidin-3-yl]methyl]-1-methyl-indole-4-sulphonamide], in experiment [1], the “α1 [%]” value is 91%. Also, the inhibition at 1 µM in experiment [2] worked out at 101%; in experiment [3] it was 14%; in experiment [4] it was 91%; in experiment [5] it was 89%; in experiment [6], 51%; in experiment [7], 52%. Also, the inhibition at 1 µM in experiment [8] turned out to be 44%.
For the compound `O=S(=O)(NCC1CCN(CCOc2nsc3ccccc23)C1)c1cccc(O)c1` (stereo not drawn) [Compound 43, N-[[1-[2-(1,2-Benzothiazol-3-yloxy)ethyl]pyrrolidin-3-yl]methyl]-3-hydroxy-benzenesulphonamide], in experiment [1], the “α1 [%]” value is on record as 68%. Also, the inhibition at 1 µM in experiment [2] came to 83%; in experiment [3] it was 87%; in experiment [4], 71%; in experiment [5], 81%; in experiment [6], 29%; in experiment [7] it was 55%. In addition, the inhibition at 1 µM in experiment [8] is -7%.

Broadly, the inhibition is the relative decrease from the control value, in per cent.

Source of the values: patent publication US20140135310A1, “SULPHONAMIDE DERIVATIVES OF ALICYCLIC AMINES FOR THE TREATMENT OF CENTRAL NERVOUS SYSTEM DISEASES” (Adamed Sp. z o.o., priority 2011, published 2014).
